Measured values reported in patent US11440907B1 (Merck Patent GmbH, priority 2018, dated 2022).
pEC50, pIC50: −log10 of the molar value.

Key:
Assay type in all cases: cell-based
[1] = tested on: intracellular calcium flux in Colo-205 cells; test: Calcium flux assay (FLIPR Calcium 5 Assay Kit, FLIPR3); details: Homo sapiens, 0.6 h, calcium flux measured over 36 minutes, read-out: Colo 205 Calcium Flux assay 384w Boston Ca assay FLIPR3 Colo EC50
Description: Compounds described herein induced ER stress by causing intracellular calcium flux. Calcium flux was measured in Colo-205 cells using the FLIPR® Calcium 5 Assay Kit according to manufacturer's protocol (Molecular Devices, Cat. #R8186) on a FLIPR3 system (Molecular Devices). Calcium flux is measured over 36 minutes. The Colo-205 calcium flux assay data are summarized in Table 3: A<0.6 μM; 0.6 μM≤B<2.0 μM; 2.0 μM≤C<10.0 μM; D≥10.0 μM.

[2] = tested on: β-catenin-TCF-mediated reporter transcription activity in Colo 205 cells; test: Colo 205 reporter assay (TCF/LEF promoter-driven firefly luciferase); details: Homo sapiens; Colo 205 TCF/LEF luciferase reporter, 5 hours after compound addition, 384 well; read-out: Colo205 IC50
[3] = tested on: XBP1(u)-luciferase splicing reporter in HepG2 hepatoma cells; test: HepG2 XBP1 reporter assay (XBP1(u)-Luc); details: Homo sapiens, 6 h, six hours after addition of compound
[4] = tested on: NCI-H929 (Multiple myeloma cells); test: Cell viability (ATPLite) in NCI-H929; details: Homo sapiens, 96 hours
Description: Cells were removed from liquid nitrogen storage, thawed and expanded in appropriate growth media. Once expanded, cells were seeded in 384-well tissue culture treated plates at 500 cells per well. After 24 hours, cells were treated for either 0 hours or treated for 96 hours with a testing compound (at the concentrations of 100 nM and 2 uM). At the end of either 0 hours or 96 hours, cell status was analyzed using ATPLite (Perkin Elmer) to assess the biological response of cells to the testing compound.

Cc1cc(N2CCCOCC2c2cc(F)ccc2Cl)nc(N)n1 (racemic) [I-70, (+/−)-4-[3-(2-chloro-5-fluoro-phenyl)-1,4-oxazepan-4-yl]-6-methyl-pyrimidin-2-amine]
pEC50 [1]: > 6.22
pIC50 [2]: 6.00 to 6.52

Cc1cc(N2CCCCCC2c2ccc(S(C)(=O)=O)cc2C)nc(N)n1 (racemic) [I-37, (+/−)-4-methyl-6-(2-(2-methyl-4-(methylsulfonyl)phenyl)azepan-1-yl)pyrimidin-2-amine]
pEC50 [1]: > 6.22
pIC50 [2]: 6.00 to 6.52

Cc1cc(N2CCCOC[C@@H]2c2cc(O)ccc2Cl)nc(N)n1 (single isomer, unassigned) [I-170]
pEC50 [1]: > 6.22
pIC50 [2]: > 6.52

Cc1cc(N2CCCOCC2c2c(F)cccc2Cl)nc(N)n1 (racemic) [I-59, (+/−)-4-(3-(2-chloro-6-fluorophenyl)-1,4-oxazepan-4-yl)-6-methylpyrimidin-2-amine]
pEC50 [1]: > 6.22
pIC50 [2]: 6.00 to 6.52

CNC(=O)c1ccc(F)c(C2CCCCCN2c2cc(C)nc(N)n2)c1 (stereo not shown) [I-55, 3-(1-(2-amino-6-methylpyrimidin-4-yl)azepan-2-yl)-4-fluoro-N-methylbenzamide]
pEC50 [1]: > 6.22
pIC50 [2]: 6.00 to 6.52

COC(=O)c1ccc(OC)c(C2COCCCN2c2cc(C)nc(N)n2)c1 (stereo not shown) [I-289]
pEC50 [1]: > 6.22
pIC50 [2]: 6.00 to 6.52

Cc1cc(N2CCCOCC2c2cc(NS(C)(=O)=O)ccc2Cl)nc(N)n1 (racemic) [I-74, (+/−)-N-(3-(4-(2-amino-6-methylpyrimidin-4-yl)-1,4-oxazepan-3-yl)-4-chlorophenyl)methanesulfonamide]
pEC50 [1]: > 6.22
pIC50 [2]: > 6.52

CCc1cc(N2CCCOC[C@@H]2c2cc(O)c(OC)cc2Cl)nc(N)n1 [D-104]
pIC50 [3]: > 6.22
pIC50 [4]: > 6.00

Cc1cc(N2CCCOC[C@H]2c2ccc(CS(C)(=O)=O)cc2OC(F)F)nc(N)n1 [D-152]
pIC50 [3]: ≤ 5.30
pIC50 [4]: ≤ 4.60

Cc1cc(N2CCCOC[C@@H]2c2ccc(F)cc2F)nc(N)n1 (single isomer, unassigned) [I-62]
pEC50 [1]: > 6.22
pIC50 [2]: 6.00 to 6.52

Cc1cc(N2CCCOC[C@@H]2c2cc(O)c(C)cc2Cl)nc(N)n1 [D-20]
pIC50 [3]: > 6.22
pIC50 [4]: > 6.00

Cc1cc(N2CCCOCC2c2cc(O)c(C(=O)O)cc2Cl)nc(N)n1 [D-23]
pIC50 [3]: > 6.22
pIC50 [4]: ≤ 4.60

Cc1cc(N2CCCOCC2c2ncc(CS(C)(=O)=O)cc2F)nc(N)n1 [D-43]
pIC50 [3]: 5.70 to 6.22
pIC50 [4]: 5.00 to 6.00

COc1ccc(C2COCCCN2c2cc(C)nc(N)n2)c(Cl)c1 [D-51]
pIC50 [3]: > 6.22
pIC50 [4]: > 6.00

COc1cc([C@@H]2COCCCN2c2cc(C)nc(N)n2)c(Cl)cc1OCC#N [D-159]
pIC50 [3]: ≤ 5.30
pIC50 [4]: ≤ 4.60

COc1cc(F)c(F)cc1[C@@H]1COCCCN1c1cc(C)nc(N)n1 [D-5]
pIC50 [3]: 5.70 to 6.22
pIC50 [4]: 5.00 to 6.00

CNC(=O)c1ccc(OC)c(C2COCCCN2c2cc(C)nc(N)n2)c1 (racemic) [I-82, (+/−)-3-(4-(2-amino-6-methylpyrimidin-4-yl)-1,4-oxazepan-3-yl)-4-methoxy-N-methylbenzamide]
pEC50 [1]: 5.70 to 6.22
pIC50 [2]: 6.00 to 6.52

CCOC(=O)OCc1cc(Cl)c(C2COCCCN2c2cc(C)nc(N)n2)cc1OCC [D-42]
pIC50 [3]: 5.70 to 6.22
pIC50 [4]: 5.00 to 6.00

Cc1cc(N2CCCOC[C@@H]2c2ccc(NC(=O)CCO)cc2Cl)nc(N)n1 [D-6]
pIC50 [3]: 5.70 to 6.22
pIC50 [4]: 5.00 to 6.00

Cc1cc(N2CCCOCC2c2ccc(CS(C)(=O)=O)nc2F)nc(N)n1 [D-33]
pIC50 [3]: 5.30 to 5.70
pIC50 [4]: ≤ 4.60

CCOC(=O)[C@]1(C)CNc2cc(Cl)c([C@H]3COCCCN3c3cc(C)nc(N)n3)cc2O1 [D-36]
pIC50 [3]: > 6.22
pIC50 [4]: > 6.00

Cc1cc(N2CCCOC[C@H]2c2ccc(NC(=O)CCO)cc2Cl)nc(N)n1 [D-7]
pIC50 [3]: 5.70 to 6.22
pIC50 [4]: > 6.00

Cc1cc(N2CCCOC[C@H]2c2ccc(C3CCNCC3)cc2Cl)nc(N)n1 [D-68]
pIC50 [3]: > 6.22
pIC50 [4]: > 6.00

CNc1cc(Cl)c([C@H]2COCCCN2c2cc(C)nc(N)n2)cc1C [D-26]
pIC50 [3]: > 6.22
pIC50 [4]: > 6.00

Cc1cc(N2CCCOC[C@@H]2c2cc(F)ccc2Cl)nc(N)n1 (single isomer, unassigned) [I-79]
pEC50 [1]: > 6.22
pIC50 [2]: > 6.52

CCOc1cc([C@@H]2COCCCN2c2cc(C)nc(N)n2)c(Cl)cc1OC [D-153]
pIC50 [3]: ≤ 5.30
pIC50 [4]: ≤ 4.60

CCOC(=O)[C@]1(C)CNc2cc(Cl)c([C@@H]3COCCCN3c3cc(C)nc(N)n3)cc2O1 [D-155]
pIC50 [3]: ≤ 5.30
pIC50 [4]: ≤ 4.60

Cc1cc(N2CCCOCC2c2cc(C)c(N3CCC(C)(O)CC3)cc2Cl)nc(N)n1 [D-13]
pIC50 [3]: 5.70 to 6.22
pIC50 [4]: ≤ 4.60

Cc1cc(N2CCCOCC2c2ccc(CS(C)(=O)=O)cc2Cl)nc(N)n1 [D-55]
pIC50 [3]: > 6.22
pIC50 [4]: > 6.00

Cc1cc(N2CCCOC[C@@H]2c2cc3c(cc2Cl)N(C)CC3)nc(N)n1 [D-14]
pIC50 [3]: > 6.22
pIC50 [4]: > 6.00

Cc1cc(N2CCCOC[C@H]2c2cc3c(cc2Cl)N(C)CC3)nc(N)n1 [D-144]
pIC50 [3]: ≤ 5.30
pIC50 [4]: ≤ 4.60

CCc1cc(N2CCCOCC2c2ccc(CS(C)(=O)=O)cc2Cl)nc(N)n1 [D-52]
pIC50 [3]: > 6.22
pIC50 [4]: > 6.00

Cc1cc(N2CCCOCC2c2ncc(CS(C)(=O)=O)cc2Cl)nc(N)n1 [D-40]
pIC50 [3]: > 6.22
pIC50 [4]: > 6.00

COc1cc([C@H]2COCCCN2c2cc(C)nc(N)n2)c(Cl)cc1OCC#N [D-38]
pIC50 [3]: > 6.22
pIC50 [4]: > 6.00

Cc1cc(N2CCCOCC2c2cc(CN)c(C)cc2Cl)nc(N)n1 [D-46]
pIC50 [3]: > 6.22
pIC50 [4]: > 6.00

Cc1cc(N2CCCOC[C@@H]2c2ccc(OCS(C)(=O)=O)cc2Cl)nc(N)n1 [D-1]
pIC50 [3]: 5.70 to 6.22
pIC50 [4]: ≤ 4.60

Cc1cc(N2CCCOCC2c2cc(N)ccc2Cl)nc(N)n1 (racemic) [I-71, (+/−)-4-(3-(5-amino-2-chlorophenyl)-1,4-oxazepan-4-yl)-6-methylpyrimidin-2-amine]
pEC50 [1]: > 6.22
pIC50 [2]: > 6.52

CCc1cc(N2CCCOC[C@@H]2c2ccc(CS(C)(=O)=O)cc2Cl)nc(N)n1 [D-59]
pIC50 [3]: > 6.22
pIC50 [4]: > 6.00

CCOC(=O)Cc1cc(C2COCCCN2c2cc(C)nc(C)n2)c(Cl)cc1C#N [D-35]
pIC50 [3]: 5.30 to 5.70
pIC50 [4]: 4.60 to 5.00

Cc1cc(N2CCCCC[C@@H]2c2ccc(F)cc2C2CC2)nc(N)n1 [I-47, (R)-4-(2-(2-cyclopropyl-4-fluorophenyl)azepan-1-yl)-6-methylpyrimidin-2-amine]
pEC50 [1]: 5.70 to 6.22
pIC50 [2]: 6.00 to 6.52

Cc1cc(N2CCCOC[C@H]2c2ccc(N)cc2Cl)nc(N)n1 [D-29]
pIC50 [3]: > 6.22
pIC50 [4]: ≤ 4.60

Cc1cc(N2CCCOCC2c2cc(O)c(OC(F)F)cc2Cl)nc(N)n1 [D-50]
pIC50 [3]: > 6.22
pIC50 [4]: > 6.00

CCOc1cc(C2COCCCN2c2cc(C)nc(N)n2)c(Cl)cc1O [D-21]
pIC50 [3]: > 6.22
pIC50 [4]: 5.00 to 6.00

COc1cc(C2COCCCN2c2cc(C)nc(N)n2)c(Cl)cc1N1CCOCC1 [D-19]
pIC50 [3]: 5.70 to 6.22
pIC50 [4]: 5.00 to 6.00

Cc1cc(N2CCCOC[C@@H]2c2ccc(S(=O)(=O)C3CCC3)cc2Cl)nc(N)n1 [D-3]
pIC50 [3]: 5.70 to 6.22
pIC50 [4]: ≤ 4.60

Cc1cc(N2CCCOC[C@H]2c2cc(N)c(C(F)(F)F)cc2Cl)nc(N)n1 [D-145]
pIC50 [3]: ≤ 5.30
pIC50 [4]: ≤ 4.60

COc1cc(C2COCCCN2c2cc(C)nc(N)n2)c(Cl)cc1OCC(=O)N1CCCCC1 [D-24]
pIC50 [3]: > 6.22
pIC50 [4]: ≤ 4.60

CCOC(=O)[C@@]1(C)CNc2cc(Cl)c([C@@H]3COCCCN3c3cc(C)nc(N)n3)cc2O1 [D-157]
pIC50 [3]: ≤ 5.30
pIC50 [4]: ≤ 4.60

Cc1cc(N2CCCOC[C@H]2c2cc3c(cc2Cl)CCN3C)nc(N)n1 [D-27]
pIC50 [3]: > 6.22
pIC50 [4]: 4.60 to 5.00

CNC(=O)[C@]1(C)CNc2cc(Cl)c([C@H]3COCCCN3c3cc(C)nc(N)n3)cc2O1 [D-116]
pIC50 [3]: > 6.22
pIC50 [4]: > 6.00

Cc1cc(N2CCCOC[C@@H]2c2cc3c(cc2Cl)OCC(C)(C)CO3)nc(N)n1 [D-31]
pIC50 [3]: > 6.22
pIC50 [4]: > 6.00

COc1cc(C2COCCCN2c2cc(C)nc(N)n2)c(Cl)cc1N1CCCC1 [D-17]
pIC50 [3]: 5.70 to 6.22
pIC50 [4]: 5.00 to 6.00

CCc1cc(N2CCCOCC2c2cc(O)c(OC)cc2Cl)nc(N)n1 [D-71]
pIC50 [3]: > 6.22
pIC50 [4]: > 6.00

Cc1cc(N2CCCOC[C@@H]2c2cc(N)c(OC(F)(F)F)cc2Cl)nc(N)n1 [D-45]
pIC50 [3]: > 6.22
pIC50 [4]: > 6.00

Cc1cc(N2CCCOC[C@H]2c2ccc(NC(=O)C3(F)CCOC3)cc2Cl)nc(N)n1 (stereo partly drawn) [D-58]
pIC50 [3]: > 6.22
pIC50 [4]: > 6.00

Cc1cc(N2CCCOC[C@H]2c2ccc(OCS(C)(=O)=O)cc2Cl)nc(N)n1 [D-2]
pIC50 [3]: > 6.22
pIC50 [4]: > 6.00

Cc1cc(N2CCCOCC2c2ccc(C3CCNCC3)cc2Cl)nc(N)n1 [D-61]
pIC50 [3]: > 6.22
pIC50 [4]: 5.00 to 6.00

Cc1cc(N2CCCOC[C@H]2c2cc(O)c(OC(F)F)cc2Cl)nc(N)n1 [D-56]
pIC50 [3]: ≤ 5.30
pIC50 [4]: 4.60 to 5.00

C#CCOc1cc(Cl)c(C2COCCCN2c2cc(C)nc(N)n2)cc1OC [D-60]
pIC50 [3]: > 6.22
pIC50 [4]: 5.00 to 6.00
